# In US8158172B2, “Fermented food products containing probiotics strains, and method for preparing same” (Compagnie Gervais Danone, priority 2006, dated 2012):
# What was measured:
# Assay type in all cases: cell-based
# bifidobacteria (I-2494) = experiment: Development of the population of bifidobacteria in the model preserved at 4° C., filtered or autoclaved stimulant (Example 4); details: 50 mg/l; for population of bifidobacteria D 10: 10 days after placing in pots; for population of bifidobacteria D 10 / population of bifidobacteria D 24 / population of bifidobacteria D 29 / population of bifidobacteria D 0: preserved at 4° C.; for population of bifidobacteria D 24: 24 days after placing in pots; for population of bifidobacteria D 29: 29 days after placing in pots; for population of bifidobacteria D 0: placing in pots (packaging); for effect of the supply on the population of bifidobacteria: filtered or autoclaved, relative to control
# Protocol: The impact of sterilization by filtration or thermization of the cysteine and methionine is assessed (final concentration used: 50 mg/l). The solutions are either filtered at 0.2 μm or autoclaved for 5 minutes at 121° C. then frozen in the form of beads in liquid nitrogen. Constitution of the model: Milex skimmed milk powder supplied by Arla food: 120 g […] Heat treatment: pasteurization for 30 minutes at 95° C. in a bubbling water bath Cysteine: supplier Sigma. The solution is prepared at 500 g/l, filtered on a 0.2 μm Nalgène filter unit or sterilized at 121° C. for 5 minutes by an autoclave controlled by temperature probe ([…] France S.A., reference KL 60/101). This solution is injected sterilely into the pasteurized model for a final concentration of 50 mg/l. […] The solution is prepared at 300 g/l; the filtration or sterilization treatment is identical to that carried out for the cysteine solution. This solution is injected sterilely into the pasteurized model for a final concentration of 50 mg/l. The seeding doses are referred to in Table 3 below. The seeding is 5.10^6 CFU/ml of Streptococcus thermophilus and 5.10^6 CFU/ml of Lactobacillus bulgaricus. The monitoring of the population of bifidobacteria in the model preserved at 4° C. as a function of the various conditions above is represented in FIG. 3 as well as in Table 4 below: The reference time D0 corresponds to placing in pots (packaging).
# [1] = test system: ferment comprising Streptococcus thermophilus (CNCM: I-1630), Lactobacillus delbrueckii ssp. bulgaricus (CNCM: I-1632, I-1519) and Bifidobacterium animalis ssp …; experiment: Monitoring of the acidification of the milk product model by the ferment of Example 1; details: vitamin C 0.5 g/l, cysteine 50 mg/l; for acidification curve compared with control / vitamin C curve: FIG. 1; for Ta = latency time / Tmax = time at Vmax / TpH 4.8 = time to arrive at pH 4.8 / TpH 5 = time to arrive at pH 5 / TpH 5.5 = time to arrive at pH 5.5 / Vmax = maximum rate / pH 0 = pH at start of fermentation / pHm = pH at the maximum acidification rate: milk model at 37° C.
# Protocol: A ferment comprising Streptococcus thermophilus (CNCM: I-1630)+Lactobacillus delbreckii ssp. bulgaricus (CNCM: I-1632)+Lactobacillus delbrueckii ssp. bulgaricus (CNCM: I-1519)+Bifidobacterium animalis ssp lactis (CNCM: I-2494) is used.
# The growth of bifidobacteria in milk is measured in the presence of a solution of vitamin C (0.5 g/l) completely reducing the oxygen in the medium, and a solution of cysteine (50 mg/l).
# Constitution of the product model:
# Milex skimmed milk powder supplied by Arla food: 120 g
# Water: quantity sufficient for 1 kg
# A heat treatment is carried out involving pasteurization for 30 minutes at 95° C. in a bubbling water bath.
# The cysteine is supplied by Sigma. The solution is prepared at 500 g/l, filtered on a 0.2 μm Nalgène filter unit. This solution is used injected sterilely into the pasteurized model for a final concentration of 50 mg/l.
# The vitamin C is supplied by Sigma. The solution is prepared at 100 g/l, filtered on a 0.2 μm Nalgène filter unit (cat. 156-4020, Nalge Europe Ltd, Belgium). This solution is used injected sterilely into the pasteurized model for a final concentration of 0.5 g/l.
# The seeding is 5.10^6 CFU/ml of Streptococcus thermophilus and 5.10^6 CFU/ml of Lactobacillus bulgaricus.
# The monitoring of the acidification of the model at 37° C. is represented in Table 2 below as well as in FIG. 1.
# [2] = test system: Bifidobacterium animalis ssp lactis (CNCM: I-2494); experiment: Growth of bifidobacteria in milk, quantity at the end of the fermentation (Example 1); details: milk model at 37° C.; vitamin C 0.5 g/l, cysteine 50 mg/l
# Protocol: A ferment comprising Streptococcus thermophilus (CNCM: I-1630)+Lactobacillus delbreckii ssp. bulgaricus (CNCM: I-1632)+Lactobacillus delbrueckii ssp. bulgaricus (CNCM: I-1519)+Bifidobacterium animalis ssp lactis (CNCM: I-2494) is used. The growth of bifidobacteria in milk is measured in the presence of a solution of vitamin C (0.5 g/l) completely reducing the oxygen in the medium, and a solution of cysteine (50 mg/l). A heat treatment is carried out involving pasteurization for 30 minutes at 95° C. in a bubbling water bath. The cysteine is supplied by Sigma. The solution is prepared at 500 g/l, filtered on a 0.2 μm Nalgène filter unit. This solution is used injected sterilely into the pasteurized model for a final concentration of 50 mg/l. The vitamin C is supplied by Sigma. The solution is prepared at 100 g/l, filtered on a 0.2 μm Nalgène filter unit (cat. 156-4020, Nalge Europe Ltd, Belgium). This solution is used injected sterilely into the pasteurized model for a final concentration of 0.5 g/l. The seeding is 5.10^6 CFU/ml of Streptococcus thermophilus and 5.10^6 CFU/ml of Lactobacillus bulgaricus.
# [3] = test system: Bifidobacterium animalis ssp lactis (CNCM: I-2494); experiment: Population of bifidobacteria in milk models (stirred yogurts) during preservation at 10° C. (Example 2)
# Protocol: A ferment comprising Streptococcus thermophilus (CNCM: I-2272)+Streptococcus thermophilus (CNCM: I-2773)+Streptococcus thermophilus (CNCM: I-2130)+Lactobacillus delbrueckii ssp. bulgaricus (CNCM: I-1519)-+Bifidobacterium animalis ssp lactis (CNCM: I-2494) is used. “Milk models” are constituted by standard stirred yogurts comprising the ferment described above. The use of 0.2 μm-filtered cysteine was assessed in the “milk models” in proportions comprised from 5 mg/l to 50 mg/l (preferably from 5 to 20 mg/l). For the bifidobacteria counting method, reference may be made to M. Grand et al., Quantitative analysis and molecular identification of bifidobacteria strains in probiotic milk products, Eur. Food Res. Technol. 217:90-92 (2003).
# [4] = test system: ferment comprising Streptococcus thermophilus (CNCM: I-2272, I-2773, I-2130), Lactobacillus delbrueckii ssp. bulgaricus (CNCM: I-1519) and Bifidobacterium …; experiment: Acidification kinetics of milk with the ferment of Example 2 (Example 3); details: 15 mg/L cysteine versus control without cysteine
# Excerpt: A ferment comprising Streptococcus thermophilus (CNCM: I-2272)+Streptococcus thermophilus (CNCM: I-2773)+Streptococcus thermophilus (CNCM: I-2130)+Lactobacillus delbrueckii ssp. bulgaricus (CNCM: I-1519)-+Bifidobacterium animalis ssp lactis (CNCM: I-2494) is used. The ferment described in Example 2 is used.
# Bifidobacterium = experiment: Population of bifidobacteria during preservation at 10° C., cysteine incorporated before pasteurization (Example 5)
# Protocol: This concentration was assessed on direct incorporation in the model and pasteurized composition (95° C., 30 minutes). The monitoring of the population of bifidobacteria in the product model during preservation at 10° C. is represented in FIG. 4.
# bifidobacteria = experiment: Populations of bifidobacteria in products with increasing doses of cysteine (Example 7)
# Protocol: Different products were prepared with increasing doses of cysteine (see the table below). The control was the standard dairy product containing the ferment.
compound,measurement,setting,value
"CSCCC(N)C(=O)O [Autoclaved methionine, L-methionine ((S)-2-amino-4-methylthio-butyric acid)]",population of bifidobacteria D 10,bifidobacteria (I-2494),3.5 · 10^8 CFU/ml
same,population of bifidobacteria D 24,bifidobacteria (I-2494),3.5 · 10^8 CFU/ml
same,population of bifidobacteria D 29,bifidobacteria (I-2494),2.8 · 10^8 CFU/ml
same,population of bifidobacteria D 0,bifidobacteria (I-2494),3.4.10^8 CFU/ml
"N[C@@H](CS)C(=O)O [Autoclaved cysteine, L-cysteine]",population of bifidobacteria D 10,bifidobacteria (I-2494),5.2.10^8 CFU/ml
same,population of bifidobacteria D 24,bifidobacteria (I-2494),2.8.10^8 CFU/ml
same,population of bifidobacteria D 29,bifidobacteria (I-2494),1.7.10^8 CFU/ml
same,population of bifidobacteria D 0,bifidobacteria (I-2494),3.1 · 10^8 CFU/ml
"CSCCC(N)C(=O)O [methionine, L-methionine ((S)-2-amino-4-methylthio-butyric acid)]",effect of the supply on the population of bifidobacteria,bifidobacteria (I-2494),increased
same,population of bifidobacteria D 10,bifidobacteria (I-2494); listed as Filtered methionine,6.2 · 10^8 CFU/ml
same,population of bifidobacteria D 24,bifidobacteria (I-2494); listed as Filtered methionine,3.4 · 10^8 CFU/ml
same,population of bifidobacteria D 29,bifidobacteria (I-2494); listed as Filtered methionine,2.3 · 10^8 CFU/ml
same,population of bifidobacteria D 0,bifidobacteria (I-2494); listed as Filtered methionine,4.0.10^8 CFU/ml
"N[C@@H](CS)C(=O)O [cysteine, L-cysteine]",acidification curve compared with control / vitamin C curve,[1],differs from the acidification curve in the presence of vitamin C
same,Ta = latency time,[1],90 min
same,Tmax = time at Vmax,[1],3.47 h
same,TpH 4.8 = time to arrive at pH 4.8,[1],417 minutes
same,TpH 5 = time to arrive at pH 5,[1],354 minutes
same,TpH 5.5 = time to arrive at pH 5.5,[1],248 minutes
same,Vmax = maximum rate,[1],−0.01046 pH units/minute
same,pH 0 = pH at start of fermentation,[1],6.6
same,pHm = pH at the maximum acidification rate,[1],5.82
same,D 0 CFU/ml = quantity of bifidobacteria obtained at the end of the fermentation,[2],2.79 · 10^8 CFU/ml
same,Bifidobacterium I-2494 population after 28 days of preservation at 10° C.,[3]; 0.0015% i.e. 15 mg/l of filtered cysteine,2.8.10^8 CFU/ml
same,Bifidobacterium population,[3]; dose of 0.0015% cysteine,> 2.10^8 CFU/ml
same,population of bifidobacteria after preservation for up to 28 days at 10° C.,[3]; highest concentration of L cysteine (range 5 mg/l to 50 mg/l),remains stable
same,population of bifidobacteria at D+24 h,"[3]; highest concentration of L cysteine (range 5 mg/l to 50 mg/l), 0.2 μm-filtered",3.10^8 CFU/ml
same,population of bifidobacteria at D+24 h,[3]; lowest concentration of L cysteine (range 5 mg/l to 50 mg/l),1.10^8 CFU/ml
same,effect on the overall acidification kinetics of milk,[4],absence of the effect
same,effect of the supply on the population of bifidobacteria,bifidobacteria (I-2494),increased
same,population of bifidobacteria D 10,bifidobacteria (I-2494); listed as Filtered cysteine,4.3 · 10^8 CFU/ml
same,population of bifidobacteria D 24,bifidobacteria (I-2494); listed as Filtered cysteine,4.0 · 10^8 CFU/ml
same,population of bifidobacteria D 0,bifidobacteria (I-2494); listed as Filtered cysteine,5.1.10^8 CFU/ml
same,population of Bifidobacterium after 44 days of preservation at 10° C.,"Bifidobacterium; 12 mg/l cysteine incorporated before pasteurization (95° C., 30 minutes)",above 1.4.10^8 CFU/ml
same,population of Bifidobacterium at D1 (24 hours of storage),"Bifidobacterium; 12 mg/l cysteine incorporated before pasteurization (95° C., 30 minutes), 10° C.",2.4.10^8 CFU/ml
same,population of Bifidobacterium on addition of 0.2 μm filtered cysteine to the model,"Bifidobacterium; filtered cysteine, not heat treated (comparison)",3.10^8 CFU/ml
same,Populations (CFU/mL) T0,"bifidobacteria; Test 1, cysteine 0.008%",4.40E+06 CFU/mL
same,Populations (CFU/mL) Tf 495 min,"bifidobacteria; Test 1, cysteine 0.008%",1.70E+08 CFU/mL
same,Populations (CFU/mL) T0,"bifidobacteria; Test 2, cysteine 0.005%",4.70E+06 CFU/mL
same,Populations (CFU/mL) T pH 4.8,"bifidobacteria; Test 2, cysteine 0.005%",1.90E+08 CFU/mL
same,Populations (CFU/mL) Tf 495 min,"bifidobacteria; Test 2, cysteine 0.005%",2.40E+08 CFU/mL
same,Populations (CFU/mL) T0,"bifidobacteria; Test 3, cysteine 0.002%",3.30E+06 CFU/mL
same,Populations (CFU/mL) T pH 4.8,"bifidobacteria; Test 3, cysteine 0.002%",2.50E+08 CFU/mL
same,Populations (CFU/mL) Tf 495 min,"bifidobacteria; Test 3, cysteine 0.002%",3.10E+08 CFU/mL
same,Populations (CFU/mL) T0,"bifidobacteria; Test 5, cysteine 0.001%",3.10E+06 CFU/mL
same,Populations (CFU/mL) T pH 4.8,"bifidobacteria; Test 5, cysteine 0.001%",1.50E+08 CFU/mL
same,Populations (CFU/mL) Tf 495 min,"bifidobacteria; Test 5, cysteine 0.001%",2.40E+08 CFU/mL
same,Populations (CFU/mL) T0,"bifidobacteria; Test 6, cysteine 0.0005%",3.90E+06 CFU/mL
same,Populations (CFU/mL) T pH 4.8,"bifidobacteria; Test 6, cysteine 0.0005%",1.10E+08 CFU/mL
same,Populations (CFU/mL) Tf 495 min,"bifidobacteria; Test 6, cysteine 0.0005%",1.20E+08 CFU/mL
"O=C1O[C@H]([C@@H](O)CO)C(O)=C1O [Vitamin C, vitamin C, reference compound]",acidification curve compared with control / vitamin C curve,[1],virtually indistinguishable from the control acidification curve
same,Ta = latency time,[1],86 min
same,Tmax = time at Vmax,[1],3.07 h
same,TpH 4.8 = time to arrive at pH 4.8,[1],479 minutes
same,TpH 5 = time to arrive at pH 5,[1],391 minutes
same,TpH 5.5 = time to arrive at pH 5.5,[1],260 minutes
same,Vmax = maximum rate,[1],−0.0079 pH units/minute
same,pH 0 = pH at start of fermentation,[1],6.5
same,pHm = pH at the maximum acidification rate,[1],5.96
same,D 0 CFU/ml = quantity of bifidobacteria obtained at the end of the fermentation,[2],1.02 · 10^8 CFU/ml
